{
  "source": "patent US20040048871A1",
  "about": "“Use of high dose intravenous methotrexate, with leucovorin rescue, to treat early multiple sclerosis and other diseases of the central nervous system” (priority 2002, published 2004)",
  "origin": "cited, not measured here",
  "key": {"[1]": {"conditions": "for crossing of the blood brain barrier (BBB): in vivo"}, "[2]": {"conditions": "in vivo"}, "[3]": {"conditions": "2.5 g/m^2 sporadically via IV infusion, with leucovorin rescue"}, "[4]": {"conditions": "8 g/m^2, four hour IV infusion, with leucovorin rescue"}, "[5]": {"conditions": "low-dose methotrexate 7.5 mg/week, orally"}},
  "note": "Read-outs that look alike come from different tables or passages of the source.",
  "data": [
    {"smiles": "O=P1(N(CCCl)CCCl)NCCCO1", "note": "(centres unmarked) [cyclophosphamide]", "values": [
      {"measurement": "crossing of the blood brain barrier (BBB)", "setting": "[1]", "value": "do not cross the blood brain barrier"},
      {"measurement": "efficacy against the progression of MS", "setting": "[2]", "value": "some efficacy"}
    ]},
    {"smiles": "Nc1nc2c(c(=O)[nH]1)N(C=O)C(CNc1ccc(C(=O)N[C@@H](CCC(=O)O)C(=O)O)cc1)CN2", "note": "(some centres unmarked) [leucovorin]", "values": [
      {"measurement": "crossing of the blood brain barrier (BBB)", "setting": "[1]", "value": "does not penetrate the BBB"}
    ]},
    {"smiles": "CN(Cc1cnc2nc(N)nc(N)c2n1)c1ccc(C(=O)N[C@@H](CCC(=O)O)C(=O)O)cc1", "note": "[methotrexate]", "values": [
      {"measurement": "serum level sufficient to cross the BBB in cytotoxic amounts", "setting": "[1]; administered orally", "value": "not sufficient to cross the BBB in cytotoxic amounts"},
      {"measurement": "toxicity", "setting": "[3]", "value": "no significant toxicity"},
      {"measurement": "results in treating CNS lymphomas", "setting": "[4]", "value": "promising results"},
      {"measurement": "toxicity", "setting": "[4]", "value": "low toxicity"},
      {"measurement": "effect on the course of progressive MS", "setting": "[5]", "value": "impact the course of progressive MS"},
      {"measurement": "toxicity", "setting": "[5]", "value": "minimal toxicity"},
      {"measurement": "upper extremity strength in MS patients", "setting": "oral methotrexate treatments", "value": "mild improvement"}
    ]},
    {"smiles": "O=C1c2c(O)ccc(O)c2C(=O)c2c(NCCNCCO)ccc(NCCNCCO)c21", "note": "[mitoxantrone]", "values": [
      {"measurement": "crossing of the blood brain barrier (BBB)", "setting": "[1]", "value": "do not cross the blood brain barrier"}
    ]}
  ]
}
